{
  "source": "patent US12702657B2",
  "about": "“Treatment and prevention of dengue disease” (Janssen Pharmaceuticals, Inc., priority 2019, dated 2026)",
  "key": {"[1]": {"system": "DENV-2/16681", "assay": "Pre-exposure prophylaxis in non-human primate model against DENV-2/16681", "type": "in vivo, rhesus monkeys (Macaca mulatta)", "conditions": "for reduction in median peak DENV RNA compared with vehicle, significance / median reduction in DENV peak RNA levels compared with vehicle control: Bayesian nonlinear dose-response model; for onset of DENV RNA and peak RNA / DENV RNA throughout the study period (up to day 28): day -1 to day 10; for onset of DENV RNA and peak RNA: in some animals; for median reduction in DENV peak RNA levels compared with vehicle control: estimated", "method": "Compound (a) was tested in a non-human primate (NHP) model against DENV-2/16681. The setup of the experiment was designed as a pre-exposure prophylaxis (PreP) study. Oral administration of compound (a) started one day before experimental infection (day −1) and continued with daily administrations until 10 days post-infection. On day 0, the animals were infected by intradermal inoculation with 100 TCID50 of DENV-2/16681 virus in a total volume of 0.1 mL (FIG. 11).\nThe rhesus monkeys were divided in 7 groups representing the following treatment regimens: • (i) Vehicle 100% PEG400 (n=5) • (ii) Group 1: 0.01 mg/kg/dose, q.d. (n=3), • (iii) Group 2: 0.18 mg/kg/dose, q.d. (n=3), • (iv) Group 3: 3 mg/kg/dose, q.d. (n=3), • (v) Group 4: 0.024 mg/kg/dose, q.d. (n=4), • (vi) Group 5: 0.09 mg/kg/dose, q.d. (n=4), • (vii) Group 6: 0.93 mg mg/kg/dose, q.d. (n=4).\nThe antiviral activity of compound (a) in a prophylactic setting is being assessed in DENV-2/16681 infected rhesus monkeys (Macaca mulatta). Blood samples were taken on a daily basis from day 0 until day 11, and on day 14 and day 28. DENV RNA was measured using real-time qPCR as described by Santiago et al. (2013). Results from compound (a) doses of 0.01, 0.024, 0.09, 0.18, 0.93 and 3 mg/kg, administered once daily from day 1 before infection until day 10 post infection, are shown in FIGS. 12A and B.\nBased on a Bayesian nonlinear dose-response statistical model, the peak viral load reduction compared with vehicle was estimated for each dose group. […] A dose dependent median reduction in DENV peak RNA levels of 0.78, 1.91, 4.73 and 6.76 log10 genome copy equivalents (GCE) per milliliter (GCE/mL) plasma compared with vehicle control was estimated with the 0.09, 0.18, 0.93 and 3 mg/kg doses, respectively (Table 1)."}, "[2]": {"system": "DENV 1/45AZ5", "assay": "Antiviral activity against DENV 1/45AZ5 in non-human primates, prophylactic setting", "type": "in vivo, rhesus monkeys (Macaca mulatta)", "conditions": "6 mg/kg q.d. oral, day -3 to day 10, follow-up to day 28 post infection", "method": "The antiviral activity of compound (a) DENV in a prophylactic setting was assessed in rhesus monkeys (Macaca mulatta) infected with strain DENV 1/45AZ5. Oral dosing of compound (a) (6 mg/kg) was started 3 days before infection with DENV (day −3) and continued with daily dosing until 10 days post infection. On day 0, the animals were intradermally inoculated with 0.5 mL of DENV 1/45AZ5 (1.2×105 plaque-forming units [PFU/mL]). Animals were followed up until day 28 post infection (FIG. 13 X).\nThe rhesus monkeys were divided in 2 groups representing the following treatment regimens: • (i) Vehicle 100% PEG400 (n=6) • (ii) Group 1: 6 mg/kg/dose, q.d. (n=6),"}, "[3]": {"system": "DENV-2/Rega lab strain", "assay": "AG129 mouse model, low viral input (10^2 PFU), PrEP, post-exposure prophylaxis and treatment (delayed treatment start)", "type": "in vivo, AG129 mice", "conditions": "30 mg/kg/dose b.i.d.; for viral load at viral rebound: start 2 days after infection (group 4)", "method": "AG129 mice, age- and sex-matched (6 to 9 weeks of age), were used to assess the activity of compound (b) on viral RNA levels in the serum of the mice. The animals were infected intraperitoneally (i.p.) with 1×10^2 PFU DENV-2/Rega lab strain and treated for five consecutive days with compound (b) which was administered by oral gavage. Compound (b) was administered every 12 hours (twice daily or b.i.d.).\nThe mice were divided in six treatment groups (n=8/group) representing the following treatment regimens: • (i) Vehicle 80%/20% PEG400/H2O (group 1), • (ii) 30 mg/kg/dose compound (b) b.i.d.: first administration 1 hour before infection (group 2), • (iii) 30 mg/kg/dose compound (b) b.i.d., first administration 1 day after infection (group 3), • (iv) 30 mg/kg/dose compound (b) b.i.d., first administration 2 days after infection (group 4), • (v) 30 mg/kg/dose compound (b) b.i.d., first administration 3 days after infection (group 5), • (vi) 30 mg/kg/dose compound (b) b.i.d., first administration 4 days after infection (group 6), • (vii) 30 mg/kg/dose compound (b) b.i.d., first administration 5 days after infection (group 7), • (viii) 30 mg/kg/dose compound (b) b.i.d., first administration 6 days after infection (group 8).\nBlood for viral RNA load detection was collected from mice in two alternating sub-groups. Each sub-group comprised half of the mice (n/2=4) from each of the treatment groups (i) to (viii). Blood was collected from a first sub-group at days 2, 4, 6, 8 and 12 p.i. and from a second sub-group at days 3, 5, 7, 9 and 14 p.i. At day 12 p.i., half of the mice in each treatment group (n=4/group) were sacrificed. The remaining mice in each treatment group (n=4/group) were sacrificed at day 14 p.i. (FIG. 17Y)."}, "[4]": {"conditions": "first administration 4 days after infection (group 6)"}, "[5]": {"conditions": "first administration 5 days after infection (group 7)"}},
  "data": [
    {"compound": "COc1cc(NC(C(=O)c2c[nH]c3ccc(OC(F)(F)F)cc23)c2ccc(Cl)cc2OC)cc(S(C)(=O)=O)c1", "note": "(centres unmarked) [compound (a)]", "values": [
      {"measurement": "reduction in median peak DENV RNA compared with vehicle, significance", "setting": "[1]; 0.01 mg/kg q.d. oral", "result": "No statistically significant reduction"},
      {"measurement": "reduction in median peak DENV RNA compared with vehicle, significance", "setting": "[1]; 0.024 mg/kg q.d. oral", "result": "No statistically significant reduction"},
      {"measurement": "onset of DENV RNA and peak RNA", "setting": "[1]; 0.09 mg/kg q.d. oral", "result": "delayed onset of DENV RNA and peak RNA"},
      {"measurement": "median reduction in DENV peak RNA levels compared with vehicle control", "setting": "[1]; 0.09 mg/kg q.d. oral", "result": 0.78, "unit": "log10 GCE/mL"},
      {"measurement": "onset of DENV RNA and peak RNA", "setting": "[1]; 0.18 mg/kg q.d. oral", "result": "delayed onset of DENV RNA and peak RNA"},
      {"measurement": "median reduction in DENV peak RNA levels compared with vehicle control", "setting": "[1]; 0.18 mg/kg q.d. oral", "result": 1.91, "unit": "log10 GCE/mL"},
      {"measurement": "DENV RNA throughout the study period (up to day 28)", "setting": "[1]; 0.93 mg/kg q.d. oral", "result": "No DENV RNA was detectable"},
      {"measurement": "median reduction in DENV peak RNA levels compared with vehicle control", "setting": "[1]; 0.93 mg/kg q.d. oral", "result": 4.73, "unit": "log10 GCE/mL"},
      {"measurement": "DENV RNA throughout the study period (up to day 28)", "setting": "[1]; 3 mg/kg q.d. oral", "result": "No DENV RNA was detectable"},
      {"measurement": "median reduction in DENV peak RNA levels compared with vehicle control", "setting": "[1]; 3 mg/kg q.d. oral", "result": 6.76, "unit": "log10 GCE/mL"},
      {"measurement": "DENV RNA during the complete study period", "setting": "[2]", "result": "undetectable"}
    ]},
    {"compound": "COc1cc(NC(C(=O)N2CCc3ccc(OC(F)(F)F)cc32)c2ccc(Cl)cc2)cc(OCCCC(=O)O)c1", "note": "(centres unmarked) [compound (b)]", "values": [
      {"measurement": "viral RNA in the serum", "setting": "[3]; first administration 1 hour before infection (group 2)", "result": "undetectable levels"},
      {"measurement": "viral RNA in the serum", "setting": "[3]; first administration 1 day after infection (group 3)", "result": "undetectable levels"},
      {"measurement": "viral RNA in the serum", "setting": "[3]; first administration 2 days after infection (group 4), except two measurements", "result": "undetectable levels"},
      {"measurement": "viral load until day 9 post infection", "setting": "[3]; first administration 3 days after infection (group 5)", "result": "undetectable viral load"},
      {"measurement": "peak viral load reduction", "setting": "[3]; [4]", "result": 1.1, "unit": "log10 copies/mL"},
      {"measurement": "time to undetectable viral load compared with vehicle treated mice", "setting": "[3]; [4]", "result": "undetectable viral load was reached earlier"},
      {"measurement": "peak viral load reduction", "setting": "[3]; [5]", "result": 0.7, "unit": "log10 copies/mL"},
      {"measurement": "time to undetectable viral load compared with vehicle treated mice", "setting": "[3]; [5]", "result": "undetectable viral load was reached earlier"},
      {"measurement": "time to undetectable viral load compared with vehicle treated mice", "setting": "[3]; first administration 6 days after infection (group 8)", "result": "undetectable viral load was reached earlier"},
      {"measurement": "viral load at viral rebound", "setting": "[3]; day 9 post infection", "result": 3.0, "unit": "log10 copies/mL"},
      {"measurement": "viral load at viral rebound", "setting": "[3]; day 14 post infection", "result": 4.7, "unit": "log10 copies/mL"},
      {"measurement": "viral RNA detected", "setting": "[3]; start 3 days after infection (group 5), day 12 post infection", "result": 5.0, "unit": "log10 copies/mL"}
    ]}
  ]
}
